# Data taken from PubChem BioAssay AID1996.
# Conditions: buffer; pH 7.4; 200.0 µM
row,SMILES,solubility kinetic
1,Cc1cc2ccccn2c1C(=O)c1ccccc1Br,0.0081 mg/mL
2,CC(NS(=O)(=O)c1ccccc1Cl)C1CC2CCC1C2 (stereo unspecified),0.0011 mg/mL
3,COc1ccc(N=CC=C2OC(C)(C)C(C)(C)O2)cc1OC.Cl,0.0471 mg/mL
4,Cc1onc(-c2ccccc2)c1C(=O)Nc1ccc(Cl)cn1,0.0031 mg/mL
5,CCOc1ccc(-n2cc(-c3ccccc3)c3c(=S)nc[nH]c32)cc1,0.0003 mg/mL
6,CN(C)CCCNc1nc(-c2ccccc2)c2c(c1C#N)CC(C)(C)OC2,0.0473 mg/mL
7,O=[N+]([O-])c1ccc(Cl)cc1N1CCCC1,0.0025 mg/mL
8,Cc1c(NCc2cccnc2)cccc1C(=O)O,> 0.0363 mg/mL
9,CCN(CC)C(=O)CN(C#N)c1nc(Cl)nc(N(C)C)n1,0.0413 mg/mL
10,O=C(NN1CCOCC1)c1cccc(Br)c1,> 0.0428 mg/mL
11,Cc1nc2sc(C(=O)c3ccccc3)c(N)c2c(C)c1C,< 0.0003 mg/mL
12,CCCN(CCC)CC(O)COc1ccc2c(c1)OCO2.Cl (stereo unspecified),0.0455 mg/mL
13,C=CCN=C1S/C(=C\c2ccc(Cl)cc2)C(=O)N1CC=C,0.002 mg/mL
14,CCOC(=O)C1CCN(Cc2ccc3ccccc3c2)CC1,0.0259 mg/mL
15,CN(C)C(=O)C(NC(=O)c1ccccc1)=C(Cl)Cl,0.042 mg/mL
16,COc1ccc2cc(C(=O)N3CCN(C)CC3)[nH]c2c1,> 0.041 mg/mL
17,CC(=O)N(/C=C1\SC(=S)N(c2ccccc2)C1=O)c1ccccc1,0.01 mg/mL
18,CCOc1ccc(NC(=O)CCC(=O)Oc2ccc(C)cc2)cc1,0.0195 mg/mL
19,O=C(CSc1nc2c(c(=O)[nH]1)CCC2)Nc1ccccc1Cl,0.0088 mg/mL
20,CNC(=O)NC(=O)COc1c(F)c(F)cc(F)c1F,0.0382 mg/mL
21,Cc1cc(C)c2sc(N)nc2c1,0.0251 mg/mL
22,CS(=O)(=O)N1Cc2ccccc2CC1C(=O)OCC(=O)NCCc1ccc(S(N)(=O)=O)cc1 (stereo unspecified),0.0591 mg/mL
23,CSc1ccccc1NC(=O)COC(=O)Cc1ccsc1,> 0.0482 mg/mL
24,CC(NC=O)c1nc2ccccc2n1CCc1ccccc1 (stereo unspecified),0.0439 mg/mL
25,C/C(Cc1ccccc1)=N\NC(=O)CNC(=O)c1ccccc1O,> 0.0488 mg/mL

row,SMILES,solubility kinetic
1,CC(=O)Nc1ccc(CN2CCN(C3CCCC3)C(CCO)C2)cc1 (stereo unspecified),> 0.0518 mg/mL
2,Clc1cccc(OCCCCN2CCCCC2)c1,0.031 mg/mL
3,Br.COc1ccc(C2=CSC3=NCCN23)cc1OC,> 0.0515 mg/mL
4,Cc1ccc2nc(SCC(=O)Nc3c(F)cccc3F)[nH]c2c1,0.0434 mg/mL
5,Cc1cccn2cc(CCNS(=O)(=O)c3cccs3)nc12,0.0456 mg/mL
6,COC(=O)CSc1nc2ccccc2c(=O)n1Cc1ccccc1,0.0007 mg/mL
7,N#Cc1ccccc1NC(=O)CN1CCOCC1,> 0.0368 mg/mL
8,Cl.OC(CNCc1cccc(Br)c1)c1ccccc1 (stereo unspecified),0.0481 mg/mL
9,Cn1c(Cc2ccccc2)nnc1SCC(=O)Nc1ccccc1,> 0.0508 mg/mL
10,CC(Oc1cccc(Cl)c1)C(=O)N1CCCN(C)CC1 (stereo unspecified),> 0.0445 mg/mL
11,CN1CCN(c2nc3ccccc3o2)CC1,> 0.0326 mg/mL
12,COCC(C)NC(=S)NCCc1ccc(Cl)cc1Cl (stereo unspecified),> 0.0482 mg/mL
13,CCC(C)NC(=O)CN1C(=O)NC2NC(=O)NC21 (stereo unspecified),> 0.0383 mg/mL
14,CC(C)(C)c1csc(NC(=O)c2ccc(Br)o2)n1,0.016 mg/mL
15,CCCOc1ccc(C(=O)Nc2ccc(CN3CCOCC3)cc2)cc1,0.0041 mg/mL
16,OC(CN1CCN(Cc2ccccc2)CC1)c1ccccc1 (stereo unspecified),> 0.0445 mg/mL
17,O=C(c1ccoc1)N1CCC(CO)(CCc2ccccc2)CC1,0.046 mg/mL
18,O=C(Cn1c(=O)oc2ccccc21)Nc1ccccc1Cl,0.0068 mg/mL
19,O=C1CCCN1CCC1CCCCN1Cc1nc(-c2cnccn2)no1 (stereo unspecified),> 0.0535 mg/mL
20,O=C(Nc1ccc2c(c1)OCCO2)c1cccnc1Oc1ccc(Cl)cc1,0.0055 mg/mL
21,O=C(O)CNc1ccccc1C(=O)O,> 0.0293 mg/mL
22,CC(=O)C1=C(O)C(=O)N(c2ccc(F)cc2)C1c1ccc(C)cc1 (stereo unspecified),> 0.0488 mg/mL
23,NS(=O)(=O)c1ccc(CCNCC(=O)NC2CC2)cc1,0.0263 mg/mL
24,O=C(Nc1nnc(-c2ccco2)o1)c1cccc(N2C(=O)CCC2=O)c1,> 0.0528 mg/mL
25,CC(C)C(C)NC(=O)CN1C(=O)NC2(CCc3ccccc32)C1=O (stereo unspecified),> 0.0494 mg/mL

row,SMILES,solubility kinetic
1,O=C(CN1CCN(Cc2ccc3c(c2)OCO3)CC1)Nc1ccc2[nH]c(=O)[nH]c2c1,> 0.0614 mg/mL
2,Cl.c1ccc(CNCc2ccco2)cc1,0.0335 mg/mL
3,C=CCNC(=O)c1cnn(-c2ccccc2)c1-c1ccccc1,> 0.0455 mg/mL
4,Cc1cccc(CN2CCN(C(=O)c3cccc4ccccc34)CC2)c1,0.0386 mg/mL
5,O=C1N=C(N2CCc3ccccc3C2)S/C1=C\c1ccc(O)cc1,0.0034 mg/mL
6,N#CN/C(=N\S(=O)(=O)c1ccccc1)c1ccccc1,0.0323 mg/mL
7,O=C(NCc1ccc(F)cc1)c1cccnc1C(=O)O,> 0.0411 mg/mL
8,CC(=O)N(c1nc(CCl)cs1)c1cccc(C)c1C,> 0.0442 mg/mL
9,O=C(Nc1ccccc1N1CCCCC1)c1cccc(Cl)c1,< 0.0003 mg/mL
10,Cc1ccc(C)c2c1c1ccccc1n2C,0.0011 mg/mL
11,COc1ccc(OCC(O)CNC(=O)c2cccs2)cc1 (stereo unspecified),0.0369 mg/mL
12,COc1ccccc1CNC(=O)COC(=O)c1ccncc1,> 0.045 mg/mL
13,N#Cc1ccccc1CN1C(=O)c2ccccc2S1(=O)=O,0.0008 mg/mL
14,N/C(=N\OC(=O)c1cccs1)C1(c2ccc(Cl)cc2Cl)CC1,0.0123 mg/mL
15,O=C1Nc2ccccc2/C1=C/c1ccccc1Cl,0.0032 mg/mL
16,CC(C)S(=O)(=O)c1cnc(-c2cccnc2)nc1N,0.0377 mg/mL
17,COc1ccc(CCCc2nc3ccccc3[nH]2)cc1,0.0374 mg/mL
18,O=C(O)c1cccnc1SCC(=O)N1CCCc2ccccc21,0.047 mg/mL
19,Cc1ccc(CNC(=O)Nc2ccc(OC(F)(F)F)cc2)n1C,0.0094 mg/mL
20,CN(c1ccccc1)S(=O)(=O)c1ccc(-c2ccccc2)cc1,< 0.0007 mg/mL
21,CC(=O)Nc1ccc(C(=O)COC(=O)C2CCCCC2)c(F)c1,0.0107 mg/mL
22,CN(C(=O)C1CCCCN1S(=O)(=O)c1ccccc1)c1ccccc1 (stereo unspecified),> 0.0538 mg/mL
23,O=S(=O)(Nc1ncccn1)c1ccc(F)cc1,> 0.038 mg/mL
24,CC12CCC(=O)N1C(C(=O)Nc1ccccc1F)CS2 (stereo unspecified),> 0.0442 mg/mL
25,CCCCn1c(CCl)nc2cc(S(=O)(=O)N3CCOCC3)ccc21,> 0.0558 mg/mL

row,SMILES,solubility kinetic
1,Cc1ccc(CNC(=O)c2cc(Cl)cc(Cl)c2)n1C,0.0111 mg/mL
2,Cc1cc(NC(=O)CN2C(=O)NC(CCc3ccccc3)C2=O)no1 (stereo unspecified),> 0.0514 mg/mL
3,CC1CCCCC1NC(=O)Cn1cnc2sccc2c1=O (stereo unspecified),> 0.0458 mg/mL
4,Cn1c(-c2ccccc2)nc2cnccc21,> 0.0314 mg/mL
5,COc1cccc(-c2cc(C(=O)NC3CCCCC3)no2)c1,< 0.0003 mg/mL
6,O=C(Cc1ccc([N+](=O)[O-])cc1)c1c(O)cc(O)cc1O,> 0.0434 mg/mL
7,Cc1cc(N2CCN(c3ncccn3)CC2)nc2c(C)cccc12,0.0002 mg/mL
8,O=C(CCC(=O)Nc1ccccc1Cl)NN=C1CCCC1,> 0.0462 mg/mL
9,O=C(CS(=O)(=O)c1ccccc1)NCc1ccccc1,> 0.0434 mg/mL
10,Cc1cc(NC(=O)C2CC(=O)N(c3ccc(F)cc3)C2)no1 (stereo unspecified),> 0.0455 mg/mL
11,CCC(=NC)C1=C(O)CC(c2ccccc2)CC1=O (stereo unspecified),> 0.0386 mg/mL
12,CC(=O)Nc1ccc(C(=O)OCC(=O)Nc2ccc(N3CCOCC3)cc2)cc1,0.007 mg/mL
13,CC(NC(=O)C12CC3CC(CC(C3)C1)C2)c1ccc(F)cc1 (stereo unspecified),0.0014 mg/mL
14,C=CCc1c(C)nc(SCc2ccccc2)[nH]c1=O,0.0104 mg/mL
15,CCN(CC)C(=O)c1cc(Cl)ccn1,0.0268 mg/mL
16,CCc1ccc(C(C)NC(=O)c2ccc3c(c2)OCO3)cc1 (stereo unspecified),0.0016 mg/mL
17,CC(C)[C@H](NC(=O)c1ccccc1)C(=O)NCCc1ccccc1,0.0103 mg/mL
18,O=C(CCc1ccccc1)NCC(=O)N/N=C/c1ccc(O)cc1O,> 0.0512 mg/mL
19,CC(C)c1ccc(N=Cc2c(O)c3ccccc3oc2=O)cc1,0.0043 mg/mL
20,Cc1cc(N2CCCC2)ccc1NC(=O)COc1ccc(Cl)cc1,0.0044 mg/mL
21,O=C(NC(=S)N1CCCC1)c1ccc(Cl)cc1Cl,0.0325 mg/mL
22,O=C(OCC(=O)N1CCN(S(=O)(=O)c2ccccc2)CC1)C1CCC1,0.054 mg/mL
23,O=C(CCC(=O)c1cccs1)NCc1ccncc1,> 0.0412 mg/mL
24,Cc1ccc(Sc2nc(C)c([N+](=O)[O-])c(C)c2C#N)cc1,0.0007 mg/mL
25,Cc1cccc(NC(=O)CCC(=O)c2cccs2)n1,> 0.0412 mg/mL

row,SMILES,solubility kinetic
1,O=C(Nc1nnc(-c2ccccc2)o1)c1cccc(S(=O)(=O)N2CCOCC2)c1,> 0.0622 mg/mL
2,COc1cccc(NC(=O)C2C(c3ccccc3)C2(Cl)Cl)c1 (stereo unspecified),0.007 mg/mL
3,O=C(c1cnc2sccn2c1=O)N1CCN(c2ccccc2Cl)CC1,0.0544 mg/mL
4,Cc1cc(=O)oc2cc(Oc3ncccc3[N+](=O)[O-])ccc12,0.002 mg/mL
5,CCOC(=O)C1CCN(S(=O)(=O)c2ccc(NC(C)=O)c(Cl)c2)CC1,0.0073 mg/mL
6,O=CC(Br)P(=O)(N1CCOCC1)N1CCOCC1 (stereo unspecified),> 0.0512 mg/mL
7,COC(=O)c1cccc(Nc2nc(-c3ccncc3)nc3ccccc23)c1,< 0.0002 mg/mL
8,CCn1ccnc1CN(C)Cc1nc(CCC(C)C)no1,0.0384 mg/mL
9,CCn1c(CNC(=O)c2ccccc2F)cc2ccccc21,0.002 mg/mL
10,Clc1ccc(Cl)c(OCCCCN2CCCCC2)c1,0.0295 mg/mL
11,COc1ccc(NC(=O)c2cc(F)cc(F)c2)cc1S(=O)(=O)N1CCCCC1,0.0051 mg/mL
12,Cn1c(=O)c2c(ncn2CC(=O)OCC(=O)Nc2cc(Cl)ccc2C#N)n(C)c1=O,0.0632 mg/mL
13,Cc1ccnc(NC(=O)CNC(=O)c2cccs2)c1,> 0.0413 mg/mL
14,CCOc1ccc(-c2c(=O)n(OCC)c3ccccc3[n+]2[O-])cc1,0.0211 mg/mL
15,CN(C(=O)CN1C(=O)c2ccccc2S1(=O)=O)C1CCCCC1,> 0.0505 mg/mL
16,O=C(NCCCCNC(=O)C(F)(F)F)C(F)(F)F,> 0.042 mg/mL
17,CC1(C)C2C(Cl)(Cl)C2(C)c2ccccc2N1C=O (stereo unspecified),0.0383 mg/mL
18,Cc1ccccc1C(=O)NCC(=O)OC1CCCCC1=O (stereo unspecified),> 0.0434 mg/mL
19,O=S(=O)(c1ccc(Cl)cc1)N1CCCc2ccccc21,0.0037 mg/mL
20,NS(=O)(=O)c1ccc(NC(=S)N2CCc3ccccc32)cc1,0.0021 mg/mL
21,CCN1CCN(c2nnc(-c3ccccc3)c3ccccc23)CC1,> 0.0478 mg/mL
